# According to patent publication US20130267484A1, “TREATMENT OF RHEUMATOID ARTHRITIS WITH MASITINIB” (AB SCIENCE, priority 2010, published 2013):
# Tested on: DMARD-refractory active RA
# Assay: Phase 2a trial of masitinib in DMARD-refractory active RA: efficacy (ACR, ACRn, CRP, DAS28)
# Format: in vivo, Human
# Design: ACRn Mean ± SD / ACRn Median: unit not given here
# Excerpt: The main exclusion criteria were patients with: inadequate bone marrow function, defined as an absolute neutrophil count ≦2.5×10^9/litre, and platelets ≦100×10^9/litre; active current infection, history of infection requiring hospitalisation, history of recurrent infections, or treatment with antibiotics within 2 weeks of screening. Treatment wash-out periods observed prior to entry to the study were: a) DMARD use within 4 weeks; b) five half-lives, or wash-out in accordance for a specific drug, whichever is longer; c) any live (attenuated) vaccines taken within 4 weeks; d) use of more than one NSAID or its dosage change within 4 weeks; e) prednisone or equivalent corticosteroid dosage >10 mg/day or any dosage change within 4 weeks; and f) prednisone or equivalent corticosteroid dosage >20 mg administered via intra-articular injection, bolus intramuscular or intravenous treatment within 4 weeks. Other exclusion criteria included any previous use of recombinant interleukin-1 receptor antagonist (IL1-Ra) and patients who were pregnant or nursing.
# Efficacy data are presented using descriptive statistics, contrasting initial dosage groups or according to previous DMARD failure. For comparison of groups according to initial dosage on a continuous variable, Student test (with Satterwhaite correction for unequal variance) or Wilcoxon test were used when normality was not rejected or rejected, respectively (normality determined via the Shapiro-Wilk test). For the same comparison on a qualitative variable, Chi-square or Fisher Exact test (if the Chi-square hypotheses were not filled) were used. The rate of patients achieving the various ACR response variables after 12 weeks of treatment (remission rate) are presented in terms of percentage and number of patients. Patients were assigned to either 3 or 6 mg/kg/day treatment groups based upon a randomisation schedule generated for packaging and labelling by the Biostatistics Section of AB Science. Individual treatment doses to be administered were supplied in sealed envelopes to be opened by the investigator at time of inclusion. Patients received the treatment from the investigator on an open basis.
# Due to the relatively high patient drop-out rate of this study, analysis was conducted on two different datasets: one with an imputation of missing values according to the last observation carried forward (LOCF) methodology and the other in the absence of data imputation, i.e. the observed cases (OC). Analysis for efficacy was performed on a modified Intention-To-Treat (ITT) population and Per Protocol (PP) population. […] The PP population was defined as a subgroup of the ITT population that in addition had presented no major protocol deviations and had completed at least 28 days of treatment exposure.
# [1] = Total population (n = 40), ITT population
# [2] = W 24, extension phase, ITT population, n = 4
# [3] = W 24, extension phase, ITT population, n = 7
# [4] = W 36, extension phase, ITT population, n = 5
# [5] = W 36, extension phase, ITT population, n = 9
# [6] = W 36, extension phase, ITT population, n = 12
# [7] = W 48, extension phase, ITT population, n = 6
# [8] = W 48, extension phase, ITT population, n = 8
# [9] = W 48, extension phase, ITT population, n = 9
# [10] = W 60, extension phase, ITT population, n = 7
# [11] = W 60, extension phase, ITT population, n = 8
smiles,measurement,setting,value
"Cc1ccc(NC(=O)c2ccc(CN3CCN(C)CC3)cc2)cc1Nc1nc(-c2cccnc2)cs1 [masitinib, 4-(4-methylpiperazin-1-ylmethyl)-N-[4-methyl-3-(4-pyridin-3ylthiazol-2-ylamino)phenyl]benzamide]",Non-responders (failed to reach ACR20) after dose augmentation,"3 mg/kg/day group, 12 patients augmented at weeks 4 or 8",42%
same,Patients with improved response after dose augmentation,"3 mg/kg/day group, 12 patients augmented at weeks 4 or 8, initial 12-week phase",58%
same,Dose response analyses: dose level,6 mg/kg/day,most potent
same,Highest response rate for the ACR50 threshold by dose at first response,"5/15, dosage not given",33.3%
same,"Time to first response ACR20, Mean ± SD",[1],46.3 ± 22.4 days
same,"Time to first response ACR20, Median",[1],35.0 days
same,"Time to first response ACR20, Min-Max",[1],28.0 to 105.0 days
same,"Time to first response ACR50, Mean ± SD",[1],89.1 ± 58.2 days
same,"Time to first response ACR50, Median",[1],84.0 days
same,"Time to first response ACR50, Min-Max",[1],28.0 to 217.0 days
same,"DAS28 <2.6, patients","W 12, ITT population, n = 24",1 (4.%)
same,DAS28 Mean ± SD,"W 12, ITT population, n = 24",4.6 ± 1.3
same,DAS28 Median,"W 12, ITT population, n = 24",4.4
same,DAS28 Min-Max,"W 12, ITT population, n = 24",0.5-7.0
same,"DAS28 ≦3.2, patients","W 12, ITT population, n = 24",1 (4%)
same,"ACR20, patients reaching level","W 12, ITT population, n = 27",15 (56%)
same,"ACR50, patients reaching level","W 12, ITT population, n = 27",9 (33%)
same,"ACR70, patients reaching level","W 12, ITT population, n = 27",3 (11%)
same,"ACR90, patients reaching level","W 12, ITT population, n = 27",0 (0%)
same,ACRn Mean ± SD,"W 12, ITT population, n = 27",31.6 ± 33.5
same,ACRn Median,"W 12, ITT population, n = 27",42.9
same,ACRn Min-Max,"W 12, ITT population, n = 27",−40.0-87.5
same,"CRP 0% < Improvement ≦25%, patients","W 12, ITT population, n = 28",5 (18%)
same,"CRP 25% < Improvement ≦50%, patients","W 12, ITT population, n = 28",3 (11%)
same,"CRP Deterioration, patients","W 12, ITT population, n = 28",3 (11%)
same,"CRP Improvement >50%, patients","W 12, ITT population, n = 28",14 (50%)
same,"CRP Stable, patients","W 12, ITT population, n = 28",3 (11%)
same,"DAS28 <2.6, patients",[2],0 (0%)
same,DAS28 Mean ± SD,[2],5.2 ± 1.7
same,DAS28 Median,[2],4.9
same,DAS28 Min-Max,[2],3.6-7.5
same,"DAS28 ≦3.2, patients",[2],0 (0%)
same,"ACR20, patients reaching level",[3],6 (86%)
same,"ACR50, patients reaching level",[3],2 (27%)
same,"ACR70, patients reaching level",[3],1 (14%)
same,"ACR90, patients reaching level",[3],0 (0%)
same,ACRn Mean ± SD,[3],36.0 ± 29.0
same,ACRn Median,[3],40.7
same,ACRn Min-Max,[3],−16.7-73.0
same,"CRP 0% < Improvement ≦25%, patients",[3],1 (14%)
same,"CRP 25% < Improvement ≦50%, patients",[3],0 (0%)
same,"CRP Deterioration, patients",[3],0 (0%)
same,"CRP Improvement >50%, patients",[3],5 (71%)
same,"CRP Stable, patients",[3],1 (14%)
same,"DAS28 <2.6, patients",[4],1 (20%)
same,DAS28 Mean ± SD,[4],4.4 ± 1.9
same,DAS28 Median,[4],4.1
same,DAS28 Min-Max,[4],2.3-7.5
same,"DAS28 ≦3.2, patients",[4],1 (20%)
same,"ACR20, patients reaching level",[5],7 (78%)
same,"ACR50, patients reaching level",[5],4 (44%)
same,"ACR70, patients reaching level",[5],2 (22%)
same,"ACR90, patients reaching level",[5],1 (11%)
same,ACRn Mean ± SD,[5],45.9 ± 32.3
same,ACRn Median,[5],45.5
same,ACRn Min-Max,[5],−3.8-93.3
same,"CRP 0% < Improvement ≦25%, patients",[6],1 (8%)
same,"CRP 25% < Improvement ≦50%, patients",[6],1 (8%)
same,"CRP Deterioration, patients",[6],0 (0%)
same,"CRP Improvement >50%, patients",[6],9 (75%)
same,"CRP Stable, patients",[6],1 (8%)
same,"DAS28 <2.6, patients",[7],0 (0%)
same,DAS28 Mean ± SD,[7],4.7 ± 2.1
same,DAS28 Median,[7],4.4
same,DAS28 Min-Max,[7],2.7-8.7
same,"DAS28 ≦3.2, patients",[7],2 (33%)
same,"ACR20, patients reaching level",[8],5 (63%)
same,"ACR50, patients reaching level",[8],3 (38%)
same,"ACR70, patients reaching level",[8],1 (13%)
same,"ACR90, patients reaching level",[8],0 (0%)
same,ACRn Mean ± SD,[8],30.9 ± 36.7
same,ACRn Median,[8],40.0
same,ACRn Min-Max,[8],−20.0-70.9
same,"CRP 0% < Improvement ≦25%, patients",[9],1 (11%)
same,"CRP 25% < Improvement ≦50%, patients",[9],0 (0%)
same,"CRP Deterioration, patients",[9],2 (22%)
same,"CRP Improvement >50%, patients",[9],6 (67%)
same,"CRP Stable, patients",[9],0 (0%)
same,"CRP 0% < Improvement ≦25%, patients",[10],1 (14%)
same,"CRP 25% < Improvement ≦50%, patients",[10],3 (43%)
same,"CRP Deterioration, patients",[10],0 (0%)
same,"CRP Improvement >50%, patients",[10],3 (43%)
same,"CRP Stable, patients",[10],0 (0%)
same,"DAS28 <2.6, patients",[10],4 (57%)
same,DAS28 Mean ± SD,[10],3.3 ± 1.5
same,DAS28 Median,[10],2.6
same,DAS28 Min-Max,[10],1.7-5.3
same,"DAS28 ≦3.2, patients",[10],4 (57%)
same,"ACR20, patients reaching level",[11],6 (75%)
same,"ACR50, patients reaching level",[11],6 (75%)
same,"ACR70, patients reaching level",[11],3 (38%)
same,"ACR90, patients reaching level",[11],2 (25%)
same,ACRn Mean ± SD,[11],58.3 ± 31.4
